Patent US12215101B2, “Pro drugs of PDE10 compounds” (Merck Sharp & Dohme LLC, priority 2021, dated 2025)
Values after ≈ are worked out from the molar mass of the structure shown. Where two headings read alike, the source gives them in different places.

What was measured:
[1] = biological target: T1, human PDE10 enzyme (Homo sapiens, UniProt Q9Y233); test: PDE10 fluorescence polarization (IMAP FP) inhibition assay; format: biochemical; conditions: 'generally less than about'
T1 construct: made in house; host or cells: AD293 cells, transiently transfected; the supernatant (cytoplasmic fraction) of the sonicated lysate served as enzyme
T1 sequence (Q9Y233 267-1055): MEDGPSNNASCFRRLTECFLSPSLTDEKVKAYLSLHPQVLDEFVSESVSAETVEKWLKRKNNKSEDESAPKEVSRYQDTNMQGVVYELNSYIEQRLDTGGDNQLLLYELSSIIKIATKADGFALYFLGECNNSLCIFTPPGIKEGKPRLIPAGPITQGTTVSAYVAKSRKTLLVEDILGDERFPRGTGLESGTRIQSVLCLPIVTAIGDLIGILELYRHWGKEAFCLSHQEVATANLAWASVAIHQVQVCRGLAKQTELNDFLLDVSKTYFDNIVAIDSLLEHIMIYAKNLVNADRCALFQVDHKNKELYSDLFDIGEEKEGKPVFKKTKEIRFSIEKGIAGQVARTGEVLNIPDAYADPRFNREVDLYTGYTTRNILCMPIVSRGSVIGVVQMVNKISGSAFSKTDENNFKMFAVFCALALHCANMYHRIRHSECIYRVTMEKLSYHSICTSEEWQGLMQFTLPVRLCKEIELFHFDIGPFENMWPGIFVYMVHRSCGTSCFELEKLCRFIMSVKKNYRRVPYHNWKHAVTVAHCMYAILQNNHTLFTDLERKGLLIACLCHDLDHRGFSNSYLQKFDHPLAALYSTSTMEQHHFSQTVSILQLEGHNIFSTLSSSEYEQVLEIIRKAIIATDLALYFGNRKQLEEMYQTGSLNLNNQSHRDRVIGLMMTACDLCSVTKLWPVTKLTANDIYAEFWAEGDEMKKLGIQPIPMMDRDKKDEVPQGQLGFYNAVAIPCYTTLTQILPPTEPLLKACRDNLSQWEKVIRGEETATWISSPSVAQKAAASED
Protocol: The activity of the compounds in accordance with the present invention as PDE10 inhibitors may be readily determined without undue experimentation using a fluorescence polarization (FP) methodology that is well known in the art (Huang, W., et al., J. Biomol Screen, 2002, 7: 215).
In a typical experiment the PDE10 inhibitory activity of compounds such as Compound A was determined in accordance with the following experimental method. PDE10A2 was amplified from human fetal brain cDNA (Clontech, Mountain View, CA) using a forward primer corresponding to nucleotides 56-77 of human PDE10A2 (Accession No. AF127480, Genbank Identifier 4894716), containing a Kozak consensus sequence, and a reverse primer corresponding to nucleotides 2406-2413 of human PDE10A2 (Accession No. AF127480, Genbank Identifier 4894716). Amplification with Easy-A polymerase (Stratagene, La Jolla, CA) was 95° C. for 2 minutes followed by thirty three cycles of 95° C. for 40 seconds, 55° C. for 30 seconds, and 72° C. for 2 minutes 48 seconds. Final extension was 72° C. for 7 minutes. […] The fluorescence polarization assay for cyclic nucleotide phosphodiesterases was performed using an IMAP® FP kit supplied by Molecular Devices, Sunnyvale, CA (product #R8139). […] 0% of inhibition is determined by using DMSO (1% final concentrations). […]

[2] = Aqueous solubility (slurry in pH 7 buffer, UPLC); format: physicochemical; conditions: aqueous buffer, thermodynamic from solid
Protocol: Aqueous solubility of the compounds was measured by suspending, sonicating (30 minutes), and slurrying (2 hours, 1000 rpm) excess solid (typically 5-10 mg) in phosphate buffered saline at pH 7, or equivalent pH 7 buffer. The suspension was then sonicated again for 30 minutes and stirred again at 1000 rpm for at least 6-24 hours. Approximately 400 μL of sample was removed and placed into spin filters. Each sample was spun at 14K rpm for 10 minutes using a 0.45 μm PVDF spin filter. A portion of the filtrate was removed and diluted with 1:1 ACN:H2O. The resultant samples were analyzed using UPLC analysis. Retains of the solids were checked by XRPD to determine if the material was crystalline or amorphous. Solubility of Compound A was measured at 140 μg/mL at pH 7.4 in PBS buffer solution.

[3] = Plasma stability in frozen human plasma; format: in vitro ADME; conditions: 37° C., 10% CO2, read-out: T1/2 Human Plasma (converted)
Protocol: (§1) Plasma stability of the compounds 1-19 (1 μM) was evaluated in frozen monkey and human plasma at 37° C. in a 10% CO2 environment. The stability of the analyte was assessed by determining the percentage of drug loss over the course of 0, 0.25, 0.5, 1, and 3 hr. In addition, the appearance of Compound A was determined for the same time course. Percent of drug loss as based on ratio with internal standard. Analyte concentrations were measured by LC/MS/MS. Linear regression was performed with log transformed percent of average TO values and linear time values. The elimination rate constant (ke) was calculated from the slope of this regression line and the half-life (T1/2) calculated based on the elimination rate constant.

[4] = Plasma stability in frozen monkey plasma; format: in vitro ADME; conditions: 37° C., 10% CO2, read-out: T1/2 Monkey Plasma (converted)
Protocol: as §1

[5] = pH 7.0 phosphate buffer, amorphous material, read-out: Aqu. Solubility

Row | Ki [1] | solubility ([2]; pH 7.4 in PBS buffer solution, read-out: Solubility) | half-life at 1 μM [3] | half-life at 1 μM [4] | solubility [2, 5] | SMILES
1 | < 1000 nM | 140 µg/mL (≈ 366 µM) |  |  |  | Cc1ccc([C@H]2C[C@@H]2COc2cc(NCc3nnc(C)s3)nc(C)n2)nc1 [Compound A, 2-methyl-N-((5-methyl-1,3,4-thiadiazol-2-yl)methyl)-6-(((1S,2S)-2-(5-methylpyridin-2-yl)cyclopropyl)methoxy)pyrimidin-4-amine, reference compound]
2 |  |  | 227 min | 100 min | 0.16 µg/mL (≈ 0.271 µM) | COc1ccc(C(=O)OCOC(=O)N(Cc2nnc(C)s2)c2cc(OC[C@H]3C[C@@H]3c3ccc(C)cn3)nc(C)n2)cc1 [Compound 16, ({(2-Methyl-6-{[(1S,2S)-2-(5-methylpyridin-2-yl)cyclopropyl]methoxy}pyrimidin-4-yl)[(5-methyl-1,3,4-thiadiazol-2-yl)methyl]carbamoyl}oxy)methyl 4-methoxybenzoate]
3 |  |  | 7.8 min | 7.2 min | 0.16 µg/mL (≈ 0.304 µM) | Cc1ccc([C@H]2C[C@@H]2COc2cc(N(Cc3nnc(C)s3)C(=O)OCOC(=O)C(C)C)nc(C)n2)nc1 [Compound 17]
